In ChEMBL document CHEMBL1687783, “Prevalence and dissemination of oqxAB in Escherichia coli isolates from animals, farmworkers, and the environment” (2010):
Converted amounts (≈) assume the structure as drawn.

Legend:
Escherichia coli [1] = assay: Antimicrobial activity against Escherichia coli C600 by CLSI agar dilution method
Escherichia coli [2] = assay: Antimicrobial activity against oqxAB positive Escherichia coli C600 W281-T transconjugant by CLSI agar dilution method
Escherichia coli [3] = assay: Antimicrobial activity against oqxAB positive Escherichia coli C600 W191-T transconjugant by CLSI agar dilution method; assay type: functional
Escherichia coli [4] = assay: Antimicrobial activity against oqxAB positive Escherichia coli C600 W322-T transconjugant by CLSI agar dilution method; assay type: functional
Escherichia coli [5] = assay: Antimicrobial activity against oqxAB positive Escherichia coli C600 W245-T transconjugant by CLSI agar dilution method; assay type: functional
Escherichia coli [6] = assay: Antimicrobial activity against oqxAB positive Escherichia coli C600 G262-T transconjugant by CLSI agar dilution method
Escherichia coli [7] = assay: Antimicrobial activity against oqxAB positive Escherichia coli C600 G062-T transconjugant by CLSI agar dilution method
Escherichia coli [8] = assay: Antimicrobial activity against oqxAB positive Escherichia coli C600 G375-T transconjugant by CLSI agar dilution method; assay type: functional
Escherichia coli [9] = assay: Antimicrobial activity against oqxAB positive Escherichia coli C600 X1B1-T transconjugant by CLSI agar dilution method
Escherichia coli [10] = assay: Antimicrobial activity against oqxAB positive Escherichia coli C600 XT11-T transconjugant by CLSI agar dilution method
Escherichia coli [11] = assay: Antimicrobial activity against oqxAB positive Escherichia coli C600 SW8-T transconjugant by CLSI agar dilution method; assay type: functional
Escherichia coli [12] = assay: Antimicrobial activity against Escherichia coli C600 ST2-T transconjugant harboring oqxAB, qnrB6 and aac(6')-Ib-cr genes by CLSI agar dilution method; assay type: functional
Escherichia coli [13] = assay: Antimicrobial activity against oqxAB positive Escherichia coli C600 SP8-T transconjugant by CLSI agar dilution method; assay type: functional
Escherichia coli [14] = assay: Antimicrobial activity against oqxAB positive Escherichia coli C600 D83-T transconjugant by CLSI agar dilution method; assay type: functional
Escherichia coli [15] = assay: Antimicrobial activity against oqxAB positive Escherichia coli DH5[alpha] harboring pMD18-T::oqxAB by CLSI agar dilution method; assay type: functional
Escherichia coli [16] = assay: Antimicrobial activity against Escherichia coli DH5[alpha] by CLSI agar dilution method

| Compound | MIC (Escherichia coli [1]) [µg/mL] | MIC (Escherichia coli [2]) [µg/mL] | MIC (Escherichia coli [3]) [µg/mL] | MIC (Escherichia coli [4]) [µg/mL] | MIC (Escherichia coli [5]) [µg/mL] | MIC (Escherichia coli [6]) [µg/mL] | MIC (Escherichia coli [7]) [µg/mL] | MIC (Escherichia coli [8]) [µg/mL] | MIC (Escherichia coli [9]) [µg/mL] | MIC (Escherichia coli [10]) [µg/mL] | MIC (Escherichia coli [11]) [µg/mL] | MIC (Escherichia coli [12]) [µg/mL] | MIC (Escherichia coli [13]) [µg/mL] | MIC (Escherichia coli [14]) [µg/mL] | MIC (Escherichia coli [15]) [µg/mL] | MIC (Escherichia coli [16]) [µg/mL] |
| --- | --- | --- | --- | --- | --- | --- | --- | --- | --- | --- | --- | --- | --- | --- | --- | --- |
| CCN1CCN(c2cc3c(cc2F)c(=O)c(C(=O)O)cn3C2CC2)CC1 [ENROFLOXACIN] | 0.016 (≈ 0.0445 µM) | 0.06 (≈ 0.167 µM) | 0.125 (≈ 0.348 µM) | 0.125 (≈ 0.348 µM) | 0.06 (≈ 0.167 µM) | 0.125 (≈ 0.348 µM) | 0.125 (≈ 0.348 µM) | 0.125 (≈ 0.348 µM) | 0.125 (≈ 0.348 µM) | 0.06 (≈ 0.167 µM) | 0.125 (≈ 0.348 µM) | 2 (≈ 5.56 µM) | 0.06 (≈ 0.167 µM) | 0.06 (≈ 0.167 µM) | 0.125 (≈ 0.348 µM) | 0.016 (≈ 0.0445 µM) |
| Cc1c(C(=O)NCCO)[n+]([O-])c2ccccc2[n+]1[O-] [OLAQUINDOX] | 8 (≈ 30.4 µM) | 128 (≈ 486 µM) | 256 (≈ 972 µM) | 512 (≈ 1940 µM) | 512 (≈ 1940 µM) | 256 (≈ 972 µM) | 256 (≈ 972 µM) | 256 (≈ 972 µM) | 256 (≈ 972 µM) | 256 (≈ 972 µM) | 512 (≈ 1940 µM) | 512 (≈ 1940 µM) | 256 (≈ 972 µM) | 256 (≈ 972 µM) | 128 (≈ 486 µM) | 8 (≈ 30.4 µM) |
| O=C(N[C@H](CO)[C@H](O)c1ccc([N+](=O)[O-])cc1)C(Cl)Cl [CHLORAMPHENICOL] | 4 (≈ 12.4 µM) | 128 (≈ 396 µM) | 128 (≈ 396 µM) | 64 (≈ 198 µM) | 64 (≈ 198 µM) | 128 (≈ 396 µM) | 32 (≈ 99 µM) | 32 (≈ 99 µM) | 128 (≈ 396 µM) | 128 (≈ 396 µM) | 128 (≈ 396 µM) | 32 (≈ 99 µM) | 64 (≈ 198 µM) | 32 (≈ 99 µM) | 64 (≈ 198 µM) | 4 (≈ 12.4 µM) |
| CCn1cc(C(=O)O)c(=O)c2cc(F)c(N3CCNCC3)cc21 [NORFLOXACIN] | 0.03 (≈ 0.0939 µM) | 0.125 (≈ 0.391 µM) | 0.125 (≈ 0.391 µM) | 0.25 (≈ 0.783 µM) | 0.125 (≈ 0.391 µM) | 0.25 (≈ 0.783 µM) | 0.125 (≈ 0.391 µM) | 0.25 (≈ 0.783 µM) | 0.125 (≈ 0.391 µM) | 0.25 (≈ 0.783 µM) | 0.5 (≈ 1.57 µM) | 4 (≈ 12.5 µM) | 0.125 (≈ 0.391 µM) | 0.125 (≈ 0.391 µM) | 0.25 (≈ 0.783 µM) | 0.03 (≈ 0.0939 µM) |
| CC(=O)c1c(C)[n+]([O-])c2ccccc2[n+]1[O-] [MEQUINDOX] | 4 (≈ 18.3 µM) | 64 (≈ 293 µM) | 128 (≈ 587 µM) | 256 (≈ 1170 µM) | 128 (≈ 587 µM) | 128 (≈ 587 µM) | 128 (≈ 587 µM) | 256 (≈ 1170 µM) | 64 (≈ 293 µM) | 128 (≈ 587 µM) | 256 (≈ 1170 µM) | 128 (≈ 587 µM) | 256 (≈ 1170 µM) | 128 (≈ 587 µM) | 64 (≈ 293 µM) | 4 (≈ 18.3 µM) |
| GENTAMICIN |  |  | 1 | 0.125 | 0.25 |  |  | 0.25 |  |  | 32 | 0.25 | 0.25 | 0.25 | 0.125 |  |
| CS(=O)(=O)c1ccc([C@@H](O)[C@@H](CF)NC(=O)C(Cl)Cl)cc1 [FLORFENICOL] | 2 (≈ 5.58 µM) | 16 (≈ 44.7 µM) | 16 (≈ 44.7 µM) | 16 (≈ 44.7 µM) | 16 (≈ 44.7 µM) | 16 (≈ 44.7 µM) | 16 (≈ 44.7 µM) | 16 (≈ 44.7 µM) | 16 (≈ 44.7 µM) | 16 (≈ 44.7 µM) | 16 (≈ 44.7 µM) | 4 (≈ 11.2 µM) | 16 (≈ 44.7 µM) | 8 (≈ 22.3 µM) | 16 (≈ 44.7 µM) | 4 (≈ 11.2 µM) |
| CCn1cc(C(=O)O)c(=O)c2ccc(C)nc21 [NALIDIXIC ACID] | 2 (≈ 8.61 µM) | 16 (≈ 68.9 µM) | 16 (≈ 68.9 µM) | 64 (≈ 276 µM) | 16 (≈ 68.9 µM) | 16 (≈ 68.9 µM) | 32 (≈ 138 µM) | 64 (≈ 276 µM) | 16 (≈ 68.9 µM) | 16 (≈ 68.9 µM) | 64 (≈ 276 µM) | 256 (≈ 1100 µM) | 32 (≈ 138 µM) | 8 (≈ 34.4 µM) | 32 (≈ 138 µM) | 2 (≈ 8.61 µM) |
| CN(C)[C@@H]1C(O)=C(C(N)=O)C(=O)[C@@]2(O)C(O)=C3C(=O)c4c(O)cccc4[C@@](C)(O)[C@H]3C[C@@H]12 [TETRACYCLINE] | 1 (≈ 2.25 µM) | 2 (≈ 4.5 µM) | 64 (≈ 144 µM) | 1 (≈ 2.25 µM) | 1 (≈ 2.25 µM) | 32 (≈ 72 µM) | 4 (≈ 9 µM) | 4 (≈ 9 µM) | 32 (≈ 72 µM) | 64 (≈ 144 µM) | 1 (≈ 2.25 µM) | 2 (≈ 4.5 µM) | 2 (≈ 4.5 µM) | 4 (≈ 9 µM) | 4 (≈ 9 µM) | 2 (≈ 4.5 µM) |
| CN[C@@H]1[C@H](O[C@H]2[C@H](O[C@H]3[C@H](O)[C@@H](O)[C@H](N=C(N)N)[C@@H](O)[C@@H]3N=C(N)N)O[C@@H](C)[C@]2(O)C=O)O[C@@H](CO)[C@H](O)[C@H]1O [STREPTOMYCIN] | > 512 | > 513 | > 514 | > 515 | > 516 | > 517 | > 518 | > 519 | > 520 | > 521 | > 522 | > 523 | > 524 | > 525 | 2 (≈ 3.44 µM) | 4 (≈ 6.88 µM) |
| CC1(C)S[C@@H]2[C@H](NC(=O)[C@H](N)c3ccccc3)C(=O)N2[C@H]1C(=O)O [AMPICILLIN] | 4 (≈ 11.4 µM) | > 128 | > 128 | > 128 | > 128 | 8 (≈ 22.9 µM) | > 128 | 16 (≈ 45.8 µM) | 16 (≈ 45.8 µM) | > 128 | > 128 | 4 (≈ 11.4 µM) | > 128 | 16 (≈ 45.8 µM) |  | > 128 |
